Assay results published in paper PMC8591201, “Anti-Tumor Activity of AZD4547 Against NTRK1 Fusion Positive Cancer Cells Through Inhibition of NTRKs” (Frontiers in Oncology, 2021).

How the values were obtained:
Test in all cases: cells
Set-up in all cases: Anti-proliferation, 10-point dose response, CellTiter-Glo luminescence (MTT stated for KM12(Luc)), GI50 fitted in Prism
[1] = system: MOLT-4; settings: Homo sapiens, MOLT-4, 72 h, read-out: GI50 (µM) a
Protocol: (§1) To obtain the GI50 value of a substance, cell viability was measured using MTT (G4000, Promega, USA) for KM12(Luc) cell and Cell titer glo (G7572, Promega, USA) for other cell lines. For adherent cells, cells were seeded at 5,000 cells/well in a 96-well plate and treated with a substance one day after cell seeding. For suspension cells, 10,000 cells/well were seeded and the substance was treated after 4 h stabilization of cells. The substance was treated at 10 points of 1:3 serial dilution (0–100 µmol/L) for 72 h. For MTT assay, 15 µL dye solution was added to each well and incubated 4 h at 37°C. 100 µL of solubilization solution was added and followed 1 hr incubation. Absorbance at 570 nm of each well was recorded using EnVision microplate reader (Perkin Elmer). For Cell titer glo assay, Cell titer glo reagent was treated in each well and measured the luminescence by EnVision microplate reader (Perkin Elmer). Viable cells in each well were normalized by using 0.5% DMSO-treated wells (100%). The inhibitor dose−response curve was fitted and GI50 values were calculated using Prism 7.0 software (GraphPad). All assays were performed in duplicate and the standard deviation (SD) was determined from two independent experiments. KM12(Luc) was purchased from the JCRB cell bank. KM12 (Luc) was used within 6 months after purchase and the DNA profiles were confirmed using a short tandem repeat (STR) analysis by the Korean Cell Line Bank. KM12(Luc) cells were maintained in DMEM supplemented with 10% FBS and antibiotics. Parental Ba/F3 cells were purchased from DSMZ and were grown in RPMI1640 supplemented with 10% FBS and antibiotics in the presence of IL3, Transformed Ba/F3 cell lines were grown in the same media without IL3. Cells used in this study were negative for mycoplasma contamination. AN3-CA, HEC1A, U138, 8505C, MKN28, MKN45, A172, A375, Capan-1 HeLa, HEP3B, MCF-7 and MIA-paca-2 cells were maintained in DMEM (Welgene, Korea) supplemented with 10% FBS and antibiotics (Welgene, Korea). Otherwise, all cells were maintained in RPMI (Welgene, Korea) supplemented with 10% FBS and antibiotics (Welgene, Korea). To identify AZD4547 sensitive cell lines other than FGFR-mutant driven cancer cells, GI50 values were determined for AZD4547 against 64 different cancer cell lines, including AN3-CA used as a positive control ( Figure 1A and Table S1 ). […] Also, inhibitory activity of AZD4547 against DDR1 or FLT3 allows suppression of proliferation of U-2-OS and MV4-11 ([43]). Therefore, our attention focused on the inhibitory activity of AZD4547 against KM12(Luc) cell lines which have the TPM3-NTRK1 fusion gene. To exclude the possibility that the anti-proliferation activity of AZD4547 against KM12(Luc) is a common characteristic of FGFR inhibitors, we determined if BGJ398, a representative FGFR inhibitor, is also capable of suppressing proliferation of KM12(Luc) cells ( Figure 1B ).

[2] = system: MKN28; settings: Homo sapiens, MKN-28, 72 h, read-out: GI50 (µM) a
Protocol: as §1

[3] = system: J82; settings: Homo sapiens, J82, 72 h, read-out: GI50 (µM) a
Protocol: as §1

[4] = system: HuH-7; settings: Homo sapiens, Huh-7, 72 h, read-out: GI50 (µM) a
Protocol: as §1

[5] = system: NCI-H2228; settings: Homo sapiens, NCI-H2228, 72 h, read-out: GI50 (µM) a
Protocol: as §1

[6] = system: NCI-H2009; settings: Homo sapiens, NCI-H2009, 72 h, read-out: GI50 (µM) a
Protocol: as §1

[7] = system: DU-145; settings: Homo sapiens, DU-145, 72 h, read-out: GI50 (µM) a
Protocol: as §1

[8] = system: NCI-H1437; settings: Homo sapiens, NCI-H1437, 72 h, read-out: GI50 (µM) a
Protocol: as §1

[9] = system: MCF7; settings: Homo sapiens, MCF7, 72 h, read-out: GI50 (µM) a
Protocol: as §1

[10] = system: AGS; settings: Homo sapiens, AGS, 72 h, read-out: GI50 (µM) a
Protocol: as §1

[11] = system: UMUC3; settings: Homo sapiens, UMUC3, 72 h, read-out: GI50 (µM) a
Protocol: as §1

[12] = system: T98G; settings: Homo sapiens, T98G, 72 h, read-out: GI50 (µM) a
Protocol: as §1

In the case of `COc1cc(CCc2cc(NC(=O)c3ccc(N4C[C@@H](C)N[C@@H](C)C4)cc3)n[nH]2)cc(OC)c1` [AZD4547], the GI50 [1] is reported as 6.59 µM, the GI50 [2] is reported as 10.9 µM and the GI50 [3] is reported as 9.54 µM. The GI50 [4] was 1.35 µM, the GI50 [5] was 17.2 µM and the GI50 [6] was 50 µM. The GI50 [7] was 10.7 µM, the GI50 [8] was 40.3 µM and the GI50 [9] was 7.84 µM. It also gave a GI50 [10] of 58.1 µM, a GI50 [11] of 46.3 µM and a GI50 [12] of 5.21 µM.
